Measurements reported in the supplement of paper PMC10883282.
Where a name gives a salt, the structure may show the parent alone.

Key:
Test in all cases: relative viability vs DMSO control (72 h) (fraction); higher = more viable cells
G401 = test system: G401
Outline: (§1)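 A 5 µM positive control and 0.1% DMSO vehicle ran alongside sarcoma cell lines seeded in 384-well plates to reach 80–90% confluence. Serially diluted compound, 2.5 µl from source plates of 10 mM to 0.0002 mM, was added after 24 h, and the plates were held 72 h at 37 °C, 5% CO2. Relative viability was worked out from ATPLite readings as percent growth averaged over up to triplicate wells. The values were rescaled so that 1 is full and 0 is none.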

KHOS-240S = test system: KHOS-240S
Outline: as §1

SW1353 = test system: SW1353
Outline: as §1

SYO-1 = test system: SYO-1
Outline: as §1

SW982 = test system: SW982
Outline: as §1

HT1080 = test system: HT1080
Outline: as §1

KHOS-NP = test system: KHOS-NP
Outline: as §1

SW872 = test system: SW872
Outline: as §1

SW684 = test system: SW684
Outline: as §1

RD-ES = test system: RD-ES
Outline: as §1

A204 = test system: A204
Outline: as §1

SK-ES-1 = test system: SK-ES-1
Outline: as §1

C=C1C[C@@H]2CC[C@@]34C[C@H]5O[C@H]6[C@@H](O3)[C@H]3O[C@H](CC[C@@H]3O[C@H]6[C@H]5O4)CC(=O)C[C@@H]3[C@@H](OC)[C@@H](C[C@H](O)CN)O[C@H]3C[C@H]3O[C@@H](CC[C@@H]1O2)C[C@@H](C)C3=C [Eribulin Mesylate]
Settings	relative viability
A204, 1.37 pM	1.12
A204, 4.1 pM	1.12
A204, 12.3 pM	1.09
A204, 37 pM	0.68
A204, 0.00011 µM	0.596
A204, 0.00033 µM	0.475
A204, 0.001 µM	0.414
A204, 0.003 µM	0.329
A204, 0.009 µM	0.2412
A204, 0.027 µM	0.224
A204, 460 fM	1.11
G401, 1.37 pM	1.08
G401, 4.1 pM	1.06
G401, 12.3 pM	1.06
G401, 37 pM	0.814
G401, 0.00011 µM	0.736
G401, 0.00033 µM	0.604
G401, 0.001 µM	0.513
G401, 0.003 µM	0.452
G401, 0.009 µM	0.417
G401, 0.027 µM	0.366
G401, 460 fM	1.05
HT1080, 1.37 pM	1.1
HT1080, 4.1 pM	1.08
HT1080, 12.3 pM	1
HT1080, 37 pM	0.959
HT1080, 0.00011 µM	0.779
HT1080, 0.00033 µM	0.178
HT1080, 0.001 µM	0.08945
HT1080, 0.003 µM	0.06
HT1080, 0.009 µM	0.0428
HT1080, 0.027 µM	0.043
HT1080, 460 fM	1.054
KHOS-240S, 1.37 pM	1.11
KHOS-240S, 4.1 pM	1.09
KHOS-240S, 12.3 pM	1.1
KHOS-240S, 37 pM	0.9987
KHOS-240S, 0.00011 µM	0.655
KHOS-240S, 0.00033 µM	0.504
KHOS-240S, 0.001 µM	0.365
KHOS-240S, 0.003 µM	0.245
KHOS-240S, 0.009 µM	0.179
KHOS-240S, 0.027 µM	0.15
KHOS-240S, 460 fM	1.07
KHOS-NP, 1.37 pM	1.11
KHOS-NP, 4.1 pM	1.119
KHOS-NP, 12.3 pM	1.113
KHOS-NP, 37 pM	1.11
KHOS-NP, 0.00011 µM	1.1
KHOS-NP, 0.00033 µM	1.05
KHOS-NP, 0.001 µM	0.922
KHOS-NP, 0.003 µM	0.669
KHOS-NP, 0.009 µM	0.479
KHOS-NP, 0.027 µM	0.438
KHOS-NP, 460 fM	1.1
RD-ES, 1.37 pM	1.04
RD-ES, 4.1 pM	1.02
RD-ES, 12.3 pM	0.953
RD-ES, 37 pM	0.472
RD-ES, 0.00011 µM	0.0831
RD-ES, 0.00033 µM	0.0672
RD-ES, 0.001 µM	0.041
RD-ES, 0.003 µM	0.0209
RD-ES, 0.009 µM	0.0188
RD-ES, 0.027 µM	0.0232
RD-ES, 460 fM	1.02
SK-ES-1, 1.37 pM	1.05
SK-ES-1, 4.1 pM	1.06
SK-ES-1, 12.3 pM	0.861
SK-ES-1, 37 pM	0.0486
SK-ES-1, 0.00011 µM	0.0799
SK-ES-1, 0.00033 µM	0.0234
SK-ES-1, 0.001 µM	0.0171
SK-ES-1, 0.003 µM	0.0147
SK-ES-1, 0.009 µM	0.0166
SK-ES-1, 0.027 µM	0.019
SK-ES-1, 460 fM	1.07
SW684, 1.37 pM	1.16
SW684, 4.1 pM	1.13
SW684, 12.3 pM	1.11
SW684, 37 pM	0.994
SW684, 0.00011 µM	1
SW684, 0.00033 µM	0.865
SW684, 0.001 µM	0.806
SW684, 0.003 µM	0.812
SW684, 0.009 µM	0.822
SW684, 0.027 µM	0.828
SW684, 460 fM	1.15
SW872, 1.37 pM	1.08
SW872, 4.1 pM	1.09
SW872, 12.3 pM	1.06
SW872, 37 pM	0.946
SW872, 0.00011 µM	0.869
SW872, 0.00033 µM	0.8125
SW872, 0.001 µM	0.686
SW872, 0.003 µM	0.567
SW872, 0.009 µM	0.4921
SW872, 0.027 µM	0.429
SW872, 460 fM	1.1
SW982, 1.37 pM	1.061
SW982, 4.1 pM	1.08
SW982, 12.3 pM	1.05
SW982, 37 pM	1.04
SW982, 0.00011 µM	0.801
SW982, 0.00033 µM	0.523
SW982, 0.001 µM	0.41
SW982, 0.003 µM	0.336
SW982, 0.009 µM	0.307
SW982, 0.027 µM	0.309
SW982, 460 fM	1.02
SW1353, 1.37 pM	1.13
SW1353, 4.1 pM	1.08
SW1353, 12.3 pM	1.06
SW1353, 37 pM	0.975
SW1353, 0.00011 µM	0.935
SW1353, 0.00033 µM	0.702
SW1353, 0.001 µM	0.56
SW1353, 0.003 µM	0.497
SW1353, 0.009 µM	0.474
SW1353, 0.027 µM	0.441
SW1353, 460 fM	1.16
SYO-1, 1.37 pM	0.915
SYO-1, 4.1 pM	0.709
SYO-1, 12.3 pM	0.513
SYO-1, 37 pM	0.388
SYO-1, 0.00011 µM	0.323
SYO-1, 0.00033 µM	0.319
SYO-1, 0.001 µM	0.312
SYO-1, 0.003 µM	0.354
SYO-1, 0.009 µM	0.365
SYO-1, 0.027 µM	0.345
SYO-1, 460 fM	1.01
